Test results from patent publication US8791131B2, “Imidazo[1,5]naphthyridine compounds, their pharmaceutical use and compositions” (Pfizer Inc., priority 2008, dated 2014).
Read-outs that look alike come from different tables or passages of the source.

How the values were obtained:
[1] = target: PI3-Kα (Mus musculus (Mouse), UniProt P42337); assay: PI3-Kα biochemical assay (in vitro kinase assay, fluorescence polarization); conditions: Ki calculated from IC50, [ATP]=30 uM, Km=25 uM;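 further: Insect-cell-expressed mouse p110/p85 complex converting PI(4,5)P2, product PI(3,4,5)P3 detected by displacing TAMRA-tagged PI(3,4,5)P3 from Grip1 PH domain, lower polarization means more product, room temperature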
Chain of PI3-Kα (P42337 whole entry, the tested form may be a part): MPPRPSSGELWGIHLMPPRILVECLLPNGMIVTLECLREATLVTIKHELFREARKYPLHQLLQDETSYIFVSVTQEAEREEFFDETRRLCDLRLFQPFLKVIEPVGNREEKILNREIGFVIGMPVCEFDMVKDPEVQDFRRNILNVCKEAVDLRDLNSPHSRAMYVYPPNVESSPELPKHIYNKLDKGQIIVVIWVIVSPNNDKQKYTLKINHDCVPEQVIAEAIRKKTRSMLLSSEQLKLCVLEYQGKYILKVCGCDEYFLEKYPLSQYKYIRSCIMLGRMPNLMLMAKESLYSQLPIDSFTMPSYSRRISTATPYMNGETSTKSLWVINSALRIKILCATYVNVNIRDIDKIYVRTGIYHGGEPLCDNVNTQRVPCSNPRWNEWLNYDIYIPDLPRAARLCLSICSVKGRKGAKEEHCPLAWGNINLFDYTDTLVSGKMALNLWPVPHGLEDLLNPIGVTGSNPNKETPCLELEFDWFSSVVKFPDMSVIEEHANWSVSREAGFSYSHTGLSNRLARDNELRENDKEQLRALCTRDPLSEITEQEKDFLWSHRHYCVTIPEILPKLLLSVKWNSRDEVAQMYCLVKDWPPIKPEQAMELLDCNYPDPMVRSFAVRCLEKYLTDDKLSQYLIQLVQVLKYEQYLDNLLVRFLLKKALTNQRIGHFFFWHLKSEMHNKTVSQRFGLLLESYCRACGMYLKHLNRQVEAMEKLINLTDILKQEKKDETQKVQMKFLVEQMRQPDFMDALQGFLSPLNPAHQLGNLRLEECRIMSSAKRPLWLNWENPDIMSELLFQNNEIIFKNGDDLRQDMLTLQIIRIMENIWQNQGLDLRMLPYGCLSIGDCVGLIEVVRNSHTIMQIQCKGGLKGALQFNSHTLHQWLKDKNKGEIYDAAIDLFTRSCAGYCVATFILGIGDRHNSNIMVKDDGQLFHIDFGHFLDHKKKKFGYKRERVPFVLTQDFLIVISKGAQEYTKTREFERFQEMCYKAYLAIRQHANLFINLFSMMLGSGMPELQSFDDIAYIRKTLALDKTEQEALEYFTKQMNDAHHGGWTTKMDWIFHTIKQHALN
Chain of PI3-Kα (P26450 whole entry partner, the tested form may be a part): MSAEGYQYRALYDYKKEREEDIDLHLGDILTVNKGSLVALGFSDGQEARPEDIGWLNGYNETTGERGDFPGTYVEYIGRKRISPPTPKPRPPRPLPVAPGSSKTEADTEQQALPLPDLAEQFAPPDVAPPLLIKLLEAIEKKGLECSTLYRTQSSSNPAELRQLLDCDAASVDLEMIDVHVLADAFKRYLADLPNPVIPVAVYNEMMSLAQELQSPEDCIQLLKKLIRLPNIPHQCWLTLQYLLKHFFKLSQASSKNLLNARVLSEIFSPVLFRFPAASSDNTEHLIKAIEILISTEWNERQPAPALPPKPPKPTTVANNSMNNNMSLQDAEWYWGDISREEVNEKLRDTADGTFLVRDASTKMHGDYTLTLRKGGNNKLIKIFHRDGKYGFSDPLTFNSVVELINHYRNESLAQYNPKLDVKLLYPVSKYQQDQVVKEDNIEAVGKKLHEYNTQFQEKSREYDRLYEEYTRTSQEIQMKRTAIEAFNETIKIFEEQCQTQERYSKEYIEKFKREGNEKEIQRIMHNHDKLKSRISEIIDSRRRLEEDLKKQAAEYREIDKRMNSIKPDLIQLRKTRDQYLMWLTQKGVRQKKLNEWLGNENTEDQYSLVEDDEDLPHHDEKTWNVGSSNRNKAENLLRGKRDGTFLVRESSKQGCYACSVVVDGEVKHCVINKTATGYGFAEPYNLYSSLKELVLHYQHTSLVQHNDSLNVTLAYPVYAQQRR

[2] = target: mTOR (Homo sapiens (Human), UniProt P42345)
Chain of mTOR (P42345 2156-2469): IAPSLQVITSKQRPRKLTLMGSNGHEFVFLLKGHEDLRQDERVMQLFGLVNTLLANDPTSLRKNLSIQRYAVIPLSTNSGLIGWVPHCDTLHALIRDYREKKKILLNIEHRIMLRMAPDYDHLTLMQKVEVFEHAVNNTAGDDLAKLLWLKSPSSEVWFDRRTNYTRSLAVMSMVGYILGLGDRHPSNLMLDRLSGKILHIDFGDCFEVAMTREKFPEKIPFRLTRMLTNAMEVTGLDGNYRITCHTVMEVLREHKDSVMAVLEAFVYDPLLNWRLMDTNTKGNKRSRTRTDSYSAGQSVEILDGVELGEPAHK

[3] = tested on: PI3-K (phosphorylation of AKT at serine 473) in BT20 cells; assay: PI3-Kα cellular assay (phospho-AKT Ser473 ELISA in BT20 cells); conditions: Homo sapiens, BT-20, 1 h;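 further: lysates read by ELISA with TMB colour at 450 nm, cells given 0.5% DMSO vehicle serve as positive control and cell-free wells as negative control, duplicate wells per concentration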
[4] = read-out: S473 pAKT 0.5% FBS IC50 (μM)
[5] = read-out: S473 pAKT 10% FBS IC50 (μM)

Structure (SMILES)	PI3Ka Ki [1] [nM]	Ki [2] [nM]	IC50 [3, 4] [µM]	IC50 [3, 5] [µM]
COc1ccc(-c2ccc3ncc4[nH]c(=O)n(-c5ccc(C(C)(C)C#N)cc5)c4c3n2)cn1 [Compound 103, 2-{4-[8-(6-methoxypyridin-3-yl)-2-oxo-2,3-dihydro-1H-imidazo[4,5-c]-1,5-naphthyridin-1-yl]phenyl}-2-methylpropanenitrile]	1.86	2.09	0.0115	
Cc1ccc(-c2ccc3ncc4c(c3n2)n(-c2ccc(C(C)(C)C#N)cc2)c(=O)n4C)cn1 [Compound 106, 2-methyl-2-{4-[3-methyl-8-(6-methylpyridin-3-yl)-2-oxo-2,3-dihydro-1H-imidazo[4,5-c]-1,5-naphthyridin-1-yl]phenyl}propanenitrile]	34.8	26.9	0.0244	
CN(C)c1ccc(-c2ccc3ncc4[nH]c(=O)n(-c5ccc(C(C)(C)C#N)cc5)c4c3n2)cn1 [Compound 107, 2-(4-(8-(6-(dimethylamino)pyridin-3-yl)-2-oxo-2,3-dihydroimidazo[4,5-c][1,5]naphthyridin-1-yl)phenyl)-2-methylpropanenitrile]	3.85	4.26	0.0676	
CN(C)c1ccc(-c2ccc3ncc4c(c3n2)n(-c2ccc(C(C)(C)C#N)cc2)c(=O)n4C)cn1 [Compound 108, 2-(4-(8-(6-(dimethylamino)pyridin-3-yl)-3-methyl-2-oxo-2,3-dihydroimidazo[4,5-c][1,5]naphthyridin-1-yl)phenyl)-2-methylpropanenitrile]	4.45	4.67	0.0309	
COc1ncc(-c2ccc3ncc4[nH]c(=O)n(-c5ccc(C(C)(C)C#N)cc5)c4c3n2)cc1F [Compound 109, 2-(4-(8-(5-fluoro-6-methoxypyridin-3-yl)-2-oxo-2,3-dihydroimidazo[4,5-c][1,5]naphthyridin-1-yl)phenyl)-2-methylpropanenitrile]	3.81	9.03	0.197	
COc1ncc(-c2ccc3ncc4c(c3n2)n(-c2ccc(C(C)(C)C#N)cc2)c(=O)n4C)cc1F [Compound 110, 2-(4-(8-(5-fluoro-6-methoxypyridin-3-yl)-3-methyl-2-oxo-2,3-dihydroimidazo[4,5-c][1,5]naphthyridin-1-yl)phenyl)-2-methylpropanenitrile]	2.35	26.6		0.0907
COc1ncc(-c2ccc3ncc4[nH]c(=O)n(-c5ccc(C(C)(C)C#N)cc5)c4c3n2)cn1 [Compound 111, 2-(4-(8-(2-methoxypyrimidin-5-yl)-2-oxo-2,3-dihydroimidazo[4,5-c][1,5]naphthyridin-1-yl)phenyl)-2-methylpropanenitrile]	11.4	1.54	0.0439	
Cn1cc(-c2ccc3ncc4[nH]c(=O)n(-c5ccc(C(C)(C)C#N)cc5)c4c3n2)cn1 [Compound 113, 2-Methyl-2-{4-[8-(1-methyl-1H-pyrazol-4-yl)-2-oxo-2,3-dihydro-1,3,5,9-tetraaza-cyclopenta[a]naphthalen-1-yl]-phenyl}-propionitrile]	59.2	15.5	0.0973	
Cn1cc(-c2ccc3ncc4c(c3n2)n(-c2ccc(C(C)(C)C#N)cc2)c(=O)n4C)cn1 [Compound 114, 2-Methyl-2-{4-[3-methyl-8-(1-methyl-1H-pyrazol-4-yl)-2-oxo-2,3-dihydro-1,3,5,9-tetraaza-cyclopenta[a]naphthalen-1-yl]-phenyl}-propionitrile]	72.3	40.2	0.116	
O=c1[nH]c2cnc3ccc(-c4cnc5ccccc5c4)nc3c2n1C1CCNCC1 [Compound 117, 1-piperidin-4-yl-8-quinolin-3-yl-1,3-dihydro-2H-imidazo[4,5-c][1,5]naphthyridin-2-one]	2.43	12.4		0.353
CCN1CCC(n2c(=O)n(C)c3cnc4ccc(-c5cnc6ccccc6c5)nc4c32)CC1 [Compound 119, 1-(1-ethylpiperidin-4-yl)-3-methyl-8-quinolin-3-yl-1,3-dihydro-2H-imidazo[4,5-c][1,5]naphthyridin-2-one]	3.19	8.11	0.0117	
CCC(=O)N1CCC(n2c(=O)n(C)c3cnc4ccc(-c5cnc6ccccc6c5)nc4c32)CC1 [Compound 121, 3-methyl-1-(1-propionylpiperidin-4-yl)-8-quinolin-3-yl-1,3-dihydro-2H-imidazo[4,5-c][1,5]naphthyridin-2-one]	0.539	7.9	0.00786	
COC(=O)N1CCC(n2c(=O)n(C)c3cnc4ccc(-c5cnc6ccccc6c5)nc4c32)CC1 [Compound 122, methyl4-(3-methyl-2-oxo-8-quinolin-3-yl-2,3-dihydro-1H-imidazo[4,5-c][1,5]napthyridin-1-yl)piperidine-1-carboxylate]	0.806	12.4	0.00807	
CNC(=O)N1CCC(n2c(=O)n(C)c3cnc4ccc(-c5cnc6ccccc6c5)nc4c32)CC1 [Compound 123, N-methyl-4-(3-methyl-2-oxo-8-quinolin-3-yl-2,3-dihydro-1H-imidazo[4,5-c][1,5]naphthyridin-1-yl)piperidine-1-carboxamide]	1.96	4.91	0.00734	
CC(C)C(=O)N1CCC(n2c(=O)n(C)c3cnc4ccc(-c5cnc6ccccc6c5)nc4c32)CC1 [Compound 125, 1-(1-isobutyrylpiperidin-4-yl)-3-methyl-8-quinolin-3-yl-1,3-dihydro-2H-imidazo[4,5-c][1,5]naphthyridin-2-one]	1.06	4.87	0.0294	
CN(C)CC(=O)N1CCC(n2c(=O)n(C)c3cnc4ccc(-c5cnc6ccccc6c5)nc4c32)CC1 [Compound 126, 1-[1-(N,N-dimethylglycyl)piperidin-4-yl]-3-methyl-8-quinolin-3-yl-1,3-dihydro-2H-imidazo[4,5-c][1,5]naphthyridin-2-one]	2.55	3.42	0.018	
CCOC(=O)N1CCC(n2c(=O)n(C)c3cnc4ccc(-c5cnc6ccccc6c5)nc4c32)CC1 [Compound 127, ethyl 4-(3-methyl-2-oxo-8-quinolin-3-yl-2,3-dihydro-1H-imidazo[4,5-c][1,5]naphthyridin-1-yl)piperidine-1-carboxylate]	1.38	4.3	0.0204	
CC(C)OC(=O)N1CCC(n2c(=O)n(C)c3cnc4ccc(-c5cnc6ccccc6c5)nc4c32)CC1 [Compound 128, isopropyl 4-(3-methyl-2-oxo-8-quinolin-3-yl-2,3-dihydro-1H-imidazo[4,5-c][1,5]naphthyridin-1-yl)piperidine-1-carboxylate]	2.89	9.72	0.0196	
CN1CCC(n2c(=O)n(C)c3cnc4ccc(-c5cnc6ccccc6c5)nc4c32)CC1 [Compound 129, 3-methyl-1-(1-methylpiperidin-4-yl)-8-quinolin-3-yl-1,3-dihydro-2H-imidazo[4,5-c][1,5]naphthyridin-2-one]	5.92	4.9	0.0117	
COc1ccc(-c2ccc3ncc4[nH]c(=O)n(Cc5ccccc5)c4c3n2)cn1 [Compound 130, 1-benzyl-8-(6-methoxypyridin-3-yl)-1,3-dihydro-2H-imidazo[4,5-c][1,5]naphthyridin-2-one]	2.39	8.44	0.0245	
COc1ccc(-c2ccc3ncc4[nH]c(=O)n([C@H]5CC[C@H](OCCO)CC5)c4c3n2)cn1 [Compound 131, 1-[trans-4-(2-hydroxyethoxy)cyclohexyl]-8-(6-methoxypyridin-3-yl)-1,3-dihydro-2H-imidazo[4,5-c][1,5]naphthyridin-2-one]	0.644	2.14		0.0384
COc1ccc(-c2ccc3ncc4[nH]c(=O)n([C@H]5CC[C@H](O)CC5)c4c3n2)cn1 [Compound 132, 1-(trans-4-hydroxycyclohexyl)-8-(6-methoxypyridin-3-yl)-1,3-dihydro-2H-imidazo[4,5-c][1,5]naphthyridin-2-one]	0.51	1.39		0.0468
COc1ccc(-c2ccc3ncc4c(c3n2)n(C2CCN(C(C)C)CC2)c(=O)n4C)cn1 [Compound 137, 1-(1-isopropylpiperidin-4-yl)-8-(6-methoxypyridin-3-yl)-3-methyl-1,3-dihydro-2H-imidazo[4,5-c][1,5]naphthyridin-2-one]	3.48	17.8		0.0551
COc1ccc(-c2ccc3ncc4c(c3n2)n(C2CCN(C(=O)CN(C)C)CC2)c(=O)n4C)cn1 [Compound 138, 1-[1-(N,N-dimethylglycyl)piperidin-4-yl]-8-(6-methoxypyridin-3-yl)-3-methyl-1,3-dihydro-2H-imidazo[4,5-c][1,5]naphthyridin-2-one]	2.23	10.6		0.0144
CNC(=O)N1CCC(n2c(=O)n(C)c3cnc4ccc(-c5cnn(C)c5)nc4c32)CC1 [Compound 217, N-methyl-4-[3-methyl-8-(1-methyl-1H-pyrazol-4-yl)-2-oxo-2,3-dihydro-1H-imidazo[4,5-c][1,5]naphthyridin-1-yl]piperidine-1-carboxamide]		18.7		0.0793
COc1ccc(-c2ccc3ncc4c(c3n2)n(C2CCN(C(=O)CO)CC2)c(=O)n4C)cc1 [Compound 273, 1-(1-glycoloylpiperidin-4-yl)-8-(4-methoxyphenyl)-3-methyl-1,3-dihydro-2H-imidazo[4,5-c][1,5]naphthyridin-2-one]		3.42		0.0174
